ChEMBL document CHEMBL1909046, “DrugMatrix in vitro pharmacology data”

Legend:
[1] = DRUGMATRIX: GABAA, Chloride Channel, TBOB radioligand binding (ligand: [3H] TBOB); assay type: cell membranes, Rattus norvegicus, Wistar, Cerebral cortex, Membrane; conditions: Not Active = under 50% inhibition at 10 µM
Insulin receptor = Insulin receptor (Rattus norvegicus, UniProt P15127); assay type: cell membranes, Wistar, Liver, Membrane; further: in other assays of this panel Not Active means under 50% inhibition at 10 µM
[2] = DRUGMATRIX: Tumor Necrosis Factor (TNF), Non-Selective radioligand binding (ligand: [125I] TNF-alpha); assay type: cell membranes, Membrane; conditions: u-937; Not Active = under 50% inhibition at 10 µM
Caspase-1 = target: T1, Caspase-1 (Homo sapiens, UniProt P29466); set-up: species or system Escherichia coli;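 further: Caspase-1 enzyme inhibition assay with a peptide substrate; in other assays of this panel Not Active means under 50% inhibition at 10 µM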
T1 sequence (P29466 whole entry): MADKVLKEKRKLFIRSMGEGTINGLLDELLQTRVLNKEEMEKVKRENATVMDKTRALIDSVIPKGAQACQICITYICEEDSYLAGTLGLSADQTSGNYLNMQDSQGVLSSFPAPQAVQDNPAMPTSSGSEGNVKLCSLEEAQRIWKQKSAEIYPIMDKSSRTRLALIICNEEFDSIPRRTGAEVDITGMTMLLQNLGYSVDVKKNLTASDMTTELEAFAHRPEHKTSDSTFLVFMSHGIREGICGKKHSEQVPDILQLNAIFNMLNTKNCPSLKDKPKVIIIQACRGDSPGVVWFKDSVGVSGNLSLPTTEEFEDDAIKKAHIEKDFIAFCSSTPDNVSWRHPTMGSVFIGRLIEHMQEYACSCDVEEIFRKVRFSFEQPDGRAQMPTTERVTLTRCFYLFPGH

Cytochrome P450 2C9 = Cytochrome P450 2C9 (Homo sapiens, UniProt P11712); conditions: bti-tn-5b1-4; further: in other assays of this panel Not Active means under 50% inhibition at 10 µM
Melanocortin receptor 3 = Melanocortin receptor 3 (Homo sapiens, UniProt P41968); assay type: cell membranes, Membrane; conditions: hek293; further: in other assays of this panel Not Active means under 50% inhibition at 10 µM
[3] = target: Epidermal growth factor receptor (Homo sapiens, UniProt P00533); assay: DRUGMATRIX: Protein Tyrosine Kinase, EGF Receptor enzyme inhibition (substrate: Poly(Glu:Tyr)); assay type: cell-based, Insect cells; conditions: insect cells, Not Active = under 50% inhibition at 10 µM
[4] = target: Mitogen-activated protein kinase 1 (Homo sapiens, UniProt P28482); assay: DRUGMATRIX: Protein Serine/Threonine Kinase, ERK2 enzyme inhibition (substrate: Myelin Basic Protein); set-up: species or system Escherichia coli; conditions: Not Active = under 50% inhibition at 10 µM
[5] = target: Receptor tyrosine-protein kinase erbB-2 (Homo sapiens, UniProt P04626); assay: biochemical; assay type: cell-based, Insect cells; conditions: insect cells
Glucocorticoid receptor = target: T2, Glucocorticoid receptor (Homo sapiens, UniProt P04150); conditions: hela s3; further: in other assays of this panel Not Active means under 50% inhibition at 10 µM
T2 sequence (P04150 whole entry): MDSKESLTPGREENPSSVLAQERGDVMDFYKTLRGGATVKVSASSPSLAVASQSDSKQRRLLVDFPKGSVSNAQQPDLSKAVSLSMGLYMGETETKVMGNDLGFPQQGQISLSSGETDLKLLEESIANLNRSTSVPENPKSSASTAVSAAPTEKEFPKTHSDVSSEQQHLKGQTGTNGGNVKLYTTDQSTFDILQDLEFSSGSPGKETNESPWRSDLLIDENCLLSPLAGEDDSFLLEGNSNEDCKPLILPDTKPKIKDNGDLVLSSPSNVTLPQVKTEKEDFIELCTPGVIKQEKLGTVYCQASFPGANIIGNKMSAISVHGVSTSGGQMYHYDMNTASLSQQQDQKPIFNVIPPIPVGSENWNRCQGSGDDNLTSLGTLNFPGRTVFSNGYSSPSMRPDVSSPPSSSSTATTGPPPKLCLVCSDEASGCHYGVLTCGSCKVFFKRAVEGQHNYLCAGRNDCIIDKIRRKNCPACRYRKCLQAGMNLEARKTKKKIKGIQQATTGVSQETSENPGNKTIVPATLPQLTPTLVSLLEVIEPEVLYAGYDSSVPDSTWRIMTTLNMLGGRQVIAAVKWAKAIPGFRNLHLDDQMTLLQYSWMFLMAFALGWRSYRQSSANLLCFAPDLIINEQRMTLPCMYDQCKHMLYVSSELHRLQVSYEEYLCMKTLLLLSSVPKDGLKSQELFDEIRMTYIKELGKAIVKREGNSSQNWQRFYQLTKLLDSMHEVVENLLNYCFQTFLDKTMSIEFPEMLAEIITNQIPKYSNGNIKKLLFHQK

[6] = target: 5-hydroxytryptamine receptor 1B (Rattus norvegicus, UniProt P28564); assay type: cell membranes, Wistar, Cerebral cortex, Membrane; further: in other assays of this panel Not Active means under 50% inhibition at 10 µM
[7] = target: T3, C-C chemokine receptor type 4 (Homo sapiens, UniProt P51679); assay type: cell membranes, Membrane; conditions: chem-1; further: in other assays of this panel Not Active means under 50% inhibition at 10 µM
T3 sequence (P51679 whole entry): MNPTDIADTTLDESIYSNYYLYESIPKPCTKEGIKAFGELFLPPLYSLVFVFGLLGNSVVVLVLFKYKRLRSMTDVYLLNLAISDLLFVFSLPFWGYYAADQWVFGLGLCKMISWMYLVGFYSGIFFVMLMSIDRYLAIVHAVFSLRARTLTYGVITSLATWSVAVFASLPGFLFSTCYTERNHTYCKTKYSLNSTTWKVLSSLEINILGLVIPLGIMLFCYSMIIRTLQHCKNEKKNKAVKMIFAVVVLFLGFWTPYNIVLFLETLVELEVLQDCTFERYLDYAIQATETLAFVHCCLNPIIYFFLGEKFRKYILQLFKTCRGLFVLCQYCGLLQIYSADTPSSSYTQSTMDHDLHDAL

[8] = target: T4, Muscarinic acetylcholine receptor M4 (Homo sapiens, UniProt P08173); assay type: cell membranes, CHO-K1, Membrane; conditions: cho-k1; further: in other assays of this panel Not Active means under 50% inhibition at 10 µM
T4 sequence (P08173 whole entry): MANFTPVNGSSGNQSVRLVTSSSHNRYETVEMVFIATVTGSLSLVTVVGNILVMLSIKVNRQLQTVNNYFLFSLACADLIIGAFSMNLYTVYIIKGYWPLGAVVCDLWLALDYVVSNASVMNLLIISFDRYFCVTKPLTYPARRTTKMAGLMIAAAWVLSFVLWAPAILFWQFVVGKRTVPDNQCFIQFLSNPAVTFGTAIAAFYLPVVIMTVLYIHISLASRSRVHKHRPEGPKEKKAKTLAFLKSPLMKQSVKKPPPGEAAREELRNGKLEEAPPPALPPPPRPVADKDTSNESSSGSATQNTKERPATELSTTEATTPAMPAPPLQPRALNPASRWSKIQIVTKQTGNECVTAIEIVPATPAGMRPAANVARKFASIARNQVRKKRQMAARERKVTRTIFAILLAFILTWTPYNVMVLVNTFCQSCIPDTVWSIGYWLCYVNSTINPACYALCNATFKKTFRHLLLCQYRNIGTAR

Sequence of Cytochrome P450 2C9 (P11712 whole entry): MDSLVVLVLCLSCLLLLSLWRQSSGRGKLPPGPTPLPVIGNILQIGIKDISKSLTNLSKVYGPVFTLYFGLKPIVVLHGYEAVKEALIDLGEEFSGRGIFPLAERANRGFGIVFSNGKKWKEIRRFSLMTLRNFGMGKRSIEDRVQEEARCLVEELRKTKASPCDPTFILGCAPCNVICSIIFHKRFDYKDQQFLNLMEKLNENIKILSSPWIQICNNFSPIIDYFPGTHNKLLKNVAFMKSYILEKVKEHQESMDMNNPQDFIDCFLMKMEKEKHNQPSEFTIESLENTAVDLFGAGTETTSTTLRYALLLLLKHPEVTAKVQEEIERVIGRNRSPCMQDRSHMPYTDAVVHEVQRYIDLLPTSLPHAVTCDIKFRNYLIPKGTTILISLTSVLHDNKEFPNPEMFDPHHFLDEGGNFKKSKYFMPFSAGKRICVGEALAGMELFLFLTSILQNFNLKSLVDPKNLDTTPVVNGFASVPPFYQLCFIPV
Sequence of Mitogen-activated protein kinase 1 (P28482 whole entry): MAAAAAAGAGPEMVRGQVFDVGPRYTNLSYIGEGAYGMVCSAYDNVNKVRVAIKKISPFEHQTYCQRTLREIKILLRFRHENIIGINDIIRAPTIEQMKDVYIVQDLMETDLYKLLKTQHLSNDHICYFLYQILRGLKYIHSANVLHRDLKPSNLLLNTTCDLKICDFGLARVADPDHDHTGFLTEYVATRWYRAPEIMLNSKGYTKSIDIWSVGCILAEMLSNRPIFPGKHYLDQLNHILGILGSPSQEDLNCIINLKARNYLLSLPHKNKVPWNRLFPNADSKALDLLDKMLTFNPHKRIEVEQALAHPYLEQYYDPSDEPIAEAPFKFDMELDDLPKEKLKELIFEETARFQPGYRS
Sequence of Insulin receptor (P15127 27-759 limits assumed): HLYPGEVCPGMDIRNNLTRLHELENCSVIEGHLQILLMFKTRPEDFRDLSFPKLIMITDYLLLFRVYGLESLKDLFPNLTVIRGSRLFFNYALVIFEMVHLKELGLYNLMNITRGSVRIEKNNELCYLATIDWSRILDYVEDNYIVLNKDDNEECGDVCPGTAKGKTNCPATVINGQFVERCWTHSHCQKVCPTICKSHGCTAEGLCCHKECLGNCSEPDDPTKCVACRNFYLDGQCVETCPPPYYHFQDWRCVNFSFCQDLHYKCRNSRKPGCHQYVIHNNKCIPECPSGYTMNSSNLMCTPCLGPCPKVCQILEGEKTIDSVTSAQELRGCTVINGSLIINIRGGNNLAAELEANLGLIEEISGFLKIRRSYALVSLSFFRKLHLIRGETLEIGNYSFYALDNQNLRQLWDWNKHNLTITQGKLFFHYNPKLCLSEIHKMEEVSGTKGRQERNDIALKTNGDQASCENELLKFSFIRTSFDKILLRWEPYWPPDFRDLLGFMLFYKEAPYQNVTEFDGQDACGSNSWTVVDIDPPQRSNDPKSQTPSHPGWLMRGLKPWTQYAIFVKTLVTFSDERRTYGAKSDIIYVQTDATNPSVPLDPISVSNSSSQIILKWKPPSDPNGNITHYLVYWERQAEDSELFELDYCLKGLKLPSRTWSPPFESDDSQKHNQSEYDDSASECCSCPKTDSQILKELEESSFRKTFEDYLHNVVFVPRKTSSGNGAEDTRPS
Sequence of Insulin receptor (P15127 764-1383 limits assumed): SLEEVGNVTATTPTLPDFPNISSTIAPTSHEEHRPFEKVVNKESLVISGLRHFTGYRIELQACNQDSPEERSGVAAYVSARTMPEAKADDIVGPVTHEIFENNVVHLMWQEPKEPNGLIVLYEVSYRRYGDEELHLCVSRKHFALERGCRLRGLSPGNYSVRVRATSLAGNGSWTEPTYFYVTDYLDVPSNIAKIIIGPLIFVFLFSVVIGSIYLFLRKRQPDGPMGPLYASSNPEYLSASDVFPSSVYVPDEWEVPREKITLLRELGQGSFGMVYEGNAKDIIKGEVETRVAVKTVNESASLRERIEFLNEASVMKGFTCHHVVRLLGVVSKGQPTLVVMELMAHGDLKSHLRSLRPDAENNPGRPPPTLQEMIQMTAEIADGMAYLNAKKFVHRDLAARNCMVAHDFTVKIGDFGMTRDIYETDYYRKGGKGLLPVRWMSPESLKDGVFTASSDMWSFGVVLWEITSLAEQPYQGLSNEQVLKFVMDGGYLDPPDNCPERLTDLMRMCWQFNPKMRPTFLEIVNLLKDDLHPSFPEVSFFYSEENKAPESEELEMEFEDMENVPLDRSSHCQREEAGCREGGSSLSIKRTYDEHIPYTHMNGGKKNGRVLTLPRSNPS
Sequence of 5-hydroxytryptamine receptor 1B (P28564 whole entry): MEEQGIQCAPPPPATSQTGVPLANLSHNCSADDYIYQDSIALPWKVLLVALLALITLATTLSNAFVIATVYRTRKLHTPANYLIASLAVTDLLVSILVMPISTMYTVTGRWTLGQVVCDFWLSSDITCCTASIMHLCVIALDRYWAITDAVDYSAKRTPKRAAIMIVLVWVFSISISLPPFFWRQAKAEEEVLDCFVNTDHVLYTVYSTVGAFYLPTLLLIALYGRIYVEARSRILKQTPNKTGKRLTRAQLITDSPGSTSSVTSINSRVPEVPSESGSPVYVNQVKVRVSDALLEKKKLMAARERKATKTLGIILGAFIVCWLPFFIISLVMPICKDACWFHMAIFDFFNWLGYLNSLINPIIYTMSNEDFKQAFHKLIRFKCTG
Sequence of Melanocortin receptor 3 (P41968 whole entry): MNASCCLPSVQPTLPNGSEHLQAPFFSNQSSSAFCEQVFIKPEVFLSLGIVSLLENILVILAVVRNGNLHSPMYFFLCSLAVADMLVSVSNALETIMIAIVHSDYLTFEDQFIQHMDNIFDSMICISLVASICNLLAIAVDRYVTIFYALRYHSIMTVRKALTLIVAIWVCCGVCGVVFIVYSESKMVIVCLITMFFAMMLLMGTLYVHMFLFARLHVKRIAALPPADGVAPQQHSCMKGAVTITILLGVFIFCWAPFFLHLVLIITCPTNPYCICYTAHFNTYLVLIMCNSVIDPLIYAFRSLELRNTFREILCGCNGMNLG

Row | Compound | IC50 [1] | Ki [1] | IC50 (Insulin receptor) | IC50 [2] | Ki [2] | IC50 (Caspase-1) | IC50 (Cytochrome P450 2C9) | Ki (Cytochrome P450 2C9) | IC50 (Melanocortin receptor 3) | IC50 [3] | IC50 [4] | IC50 [5] | IC50 (Glucocorticoid receptor) | IC50 [6] | IC50 [7] | IC50 [8] | Ki (Insulin receptor) | Ki (Caspase-1) | Ki (Melanocortin receptor 3) | Ki [4] | also measured
1 | C=C1[C@@H]2CCC3[C@@](CC[C@@H]4[C@H](C(=O)O)C[C@@H](O[C@@H]5O[C@H](CO)[C@@H](OS(=O)(=O)[O-])[C@H](OS(=O)(=O)[O-])[C@H]5OC(=O)CC(C)C)C[C@@]34C)(C2)[C@@H]1O.[K+].[K+] (some centres not stated) [ATRACTYLOSIDE] | Not Active | Not Active | Not Active | Not Active | Not Active | Not Active | Not Active | Not Active | Not Active | Not Active | Not Active | Not Active | Not Active | Not Active | Not Active | Not Active |  |  |  |  | 
2 | CCCC[C@@H](CC)COC(=O)c1ccccc1C(=O)OC[C@@H](CC)CCCC [BIS(2-ETHYLHEXYL)PHTHALATE] | Not Active | Not Active | Not Active | Not Active | Not Active | Not Active | Not Active | Not Active | Not Active | Not Active | Not Active | Not Active | Not Active | Not Active | Not Active | Not Active |  |  |  |  | 
3 | CN1C[C@H](C(=O)N[C@]2(C)O[C@@]3(O)[C@@H]4CCCN4C(=O)[C@H](Cc4ccccc4)N3C2=O)C=C2c3cccc4[nH]cc(c34)C[C@H]21 [ERGOTAMINE] | Not Active | Not Active | Not Active | Not Active | Not Active | Not Active | Not Active | Not Active | Not Active | Not Active | Not Active | Not Active | Not Active |  | Not Active | Not Active |  |  |  |  | IC50 ([6]; read-out: IC50): 0.201 nM; Ki ([6]; read-out: Ki): 0.091 nM
4 | C=C(C)[C@@H]1[C@H]2OC(=O)[C@@H]1[C@]1(O)C[C@H]3O[C@]34C(=O)O[C@H]2[C@]14C [PICROTOXININ] |  |  | Not Active | Not Active | Not Active | Not Active | Not Active | Not Active | Not Active | Not Active | Not Active | Not Active | Not Active | Not Active | Not Active | Not Active |  |  |  |  | IC50 ([1]; read-out: IC50): 368 nM; Ki ([1]; read-out: Ki): 330 nM
5 | CARBOPLATIN | Not Active | Not Active | Not Active | Not Active | Not Active | Not Active | Not Active | Not Active | Not Active | Not Active | Not Active | Not Active | Not Active | Not Active | Not Active | Not Active | Not Active | Not Active | Not Active | Not Active | Ki [3]: Not Active; Ki [5]: Not Active; Ki (Glucocorticoid receptor): Not Active; Ki [6]: Not Active; Ki [7]: Not Active; Ki [8]: Not Active
6 | CISPLATIN | Not Active | Not Active | Not Active | Not Active | Not Active | Not Active | Not Active | Not Active | Not Active |  | Not Active | Not Active | Not Active | Not Active | Not Active | Not Active | Not Active | Not Active | Not Active | Not Active | IC50 ([3]; read-out: IC50): 2620 nM; Ki [5]: Not Active; Ki (Glucocorticoid receptor): Not Active; Ki [6]: Not Active; Ki [7]: Not Active; Ki [8]: Not Active
7 | OXALIPLATIN | Not Active | Not Active | Not Active | Not Active | Not Active | Not Active | Not Active | Not Active | Not Active | Not Active | Not Active | Not Active | Not Active | Not Active | Not Active | Not Active | Not Active | Not Active | Not Active | Not Active | Ki [3]: Not Active; Ki [5]: Not Active; Ki (Glucocorticoid receptor): Not Active; Ki [6]: Not Active; Ki [7]: Not Active; Ki [8]: Not Active
